In patent publication US20030092735A1, “Use of substance P antagonists for the treatment of chronic fatigue syndrome and/or fibromyalgia and use of NK-1 receptor antagonists for the treatment of chronic fatigue syndrome” (priority 1998, published 2003):

Legend:
[1] = tested on: Patients with chronic fatigue syndrome; assay: CFS Clinical Study (randomized, double-blind, placebo-controlled); assay type: in vivo, human; settings: doses of 10 to 20 mg/day, myalgias, cognitive impairment, baseline vs end of treatment
Description: Patients with chronic fatigue syndrome according to the CDC (Centre for Disease Control) definition (G. P. Holmes et al.: A working case definition. Ann. intern. Med; 108 (1988), 387-389) are included in the trial. Other recognised definitions may be used to identify patients with chronic fatigue syndrome as appropriate. Both male and female patients are eligible, provided they are over 18 years of age and under 65 years of age. The main exclusion criteria comprise pregnant and lactating women; in addition patients suffering from other diseases that cause significant fatigue as well as patients who suffer from active infections are excluded. […]
The study is in the form of a prospective, randomized, double-blind, placebo-controlled, parallel-group study using different doses of a Preferred A Compound of the Invention, (e.g. (2R,4S)-N-[1-(3,5-bistrifluoromethylbenzoyl)-2-(4-chlorobenzyl)-piperidin-4-yl-quinolin-4-carboxamide). […] Adverse events are assessed during the active treatment period. […]
Other parameters which are evaluated include cognitive impairment (to be measured by visual analog scale [VAS]) and the assessment of myalgias. […] The assessment of each body region is done by the patients themselves; the total score is calculated as the sum of the regional scores. […]

[2] = tested on: patients who meet the ACR criteria for primary fibromyalgia; assay: Fibromyalgia Clinical Study (randomized, double-blind, placebo-controlled); assay type: in vivo, human; settings: doses of 10 to 20 mg/day; response = 35% or higher reduction in individual pain score, baseline versus end of treatment
Description: The study is in the form of a prospective, randomized, double-blind, placebo-controlled, parallel-group study using different doses of Compound of the Invention. Male and female patients (over 18 years) who meet the ACR (American College of Rheumatology) cirteria for primary fibromyalgia are included in this trial. The main exclusion criteria include pregnant and lactating woman, patients suffering from other inflammatory rheumatological diseases (such as rheumatoid arthritis or collagenoses), severe neuropathies, clinically manifest endocrinopathies, bone diseases, severe cardial, renal or hepatic impairment and acute or chronic infections.
Patients are randomly assigned to one of five study arms, placebo, 1 mg, 10 mg, 20 mg and 40 mg of test compound. The duration of treatment is two weeks. Before, on day 7 and at the end of the treatment phase, a physical examination, pain assessment and blood testing are performed. […] Adverse events are assessed during the active treatment period.
To evaluate pain, the pain score, a visual analogue scale and clinical examination of tenderpoints is used. […] The assessment of each body region is done by the patients themselves; the total score is calculated as the sum of the regional scores. […]

[3] = tested on: patients who meet the ACR criteria for primary fibromyalgia; settings: Amitryptilin regarded as an effective treatment in fibromyalgia; comparator value; cited from earlier work

Row | SMILES | reduction in the score for one or more symptoms of CFS [1] | response rates for fibromyalgia treatment [2] | response rates in fibromyalgia (of patients) [3]
1 | O=C(N[C@H]1CCN(C(=O)c2cc(C(F)(F)F)cc(C(F)(F)F)c2)[C@H](Cc2ccc(Cl)cc2)C1)c1ccnc2ccccc12 [(2R,4S)-N-[1-(3,5-bistrifluoromethylbenzoyl)-2-(4-chlorobenzyl)-piperidin-4-yl-quinolin-4-carboxamide] | ≥ 20% | at least equivalent to or comparable with those achieved with Amitryptilin | –
2 | CN(C)CCC=C1c2ccccc2CCc2ccccc21 [Amitryptilin] | – | – | 20 to 30%
